Holding throughout (type): functional
For test [1], the system named is Oryctolagus cuniculus. Nature of the test: Tested for the fall of intraocular pressure of glaucomatous rabbits, after treatment with one drop (50 uL) 2% solution at a pH 7.0, directly into the eye after 0 minutes of administration.
In test [2] the test system is Oryctolagus cuniculus. The test is described as follows: Tested for the fall of intraocular pressure of glaucomatous rabbits, after treatment with one drop (50 uL) 2% solution at a pH 7.0, directly into the eye after 90 minutes of administration.
For test [3], the system named is Oryctolagus cuniculus. The test is described as follows: Tested for the fall of intraocular pressure of glaucomatous rabbits, after treatment with one drop (50 uL) 2% solution at a pH 7.0, directly into the eye after 30 minutes of administration.
The test system of test [4] is Oryctolagus cuniculus. Nature of the test: Tested for the fall of intraocular pressure of glaucomatous rabbits, after treatment with one drop (50 uL) 2% solution at a pH 7.0, directly into the eye after 60 minutes of administration.
The subject of test [5] is Oryctolagus cuniculus. Nature of the test: Tested for the fall of intraocular pressure of glaucomatous rabbits, after treatment with one drop (50 uL) 2% solution at a pH 6.5, directly into the eye after 30 minutes of administration.
In test [6] the test system is Oryctolagus cuniculus. Nature of the test: Tested for the fall of intraocular pressure of glaucomatous rabbits, after treatment with one drop (50 uL) 2% solution at a pH 6.5, directly into the eye after 0 minutes of administration.
The subject of test [7] is Oryctolagus cuniculus. Nature of the test: Tested for the fall of intraocular pressure of glaucomatous rabbits, after treatment with one drop (50 uL) 2% solution at a pH 6.5, directly into the eye after 90 minutes of administration.
The test system of test [8] is Oryctolagus cuniculus. The test is described as follows: Tested for the fall of intraocular pressure of glaucomatous rabbits, after treatment with one drop (50 uL) 2% solution at a pH 6.5, directly into the eye after 60 minutes of administration.

On to `NCC(=O)NC(=S)NCCc1ccc(S(N)(=O)=O)cc1.[Cl-].[Na+]`, for which the Activity in test [1] is recorded as 0 mmHg; in test [2], 5.5 mmHg; in test [3] it was 3 mmHg; in test [4], 5.9 mmHg.
Consider `NC(=O)CC(N)C(=O)NC(=S)NCCc1ccc(S(N)(=O)=O)cc1.[Cl-].[Na+]` (stereo unspecified), for which the Activity worked out at 0 mmHg in test [1], 15.5 mmHg in test [2], 10 mmHg in test [3] and 13 mmHg in test [4].
Consider `NC(Cc1ccccc1)C(=O)NC(=S)NCCc1ccc(S(N)(=O)=O)cc1.[Cl-].[Na+]` (stereo unspecified), for which the Activity in test [1] is recorded as 0 mmHg; in test [2] it was 6.4 mmHg; in test [3] it was 4 mmHg; in test [4], 6.1 mmHg.
`Cl.NS(=O)(=O)c1ccc(CC/N=C(\S)NNCCN2CCOCC2)cc1`: the Activity in test [5] came to 6.5 mmHg; in test [6], 0 mmHg; in test [7] it was 5.9 mmHg; in test [8], 6.9 mmHg.
